{"source": "patent US9341839B2", "about": "“Electrowetting display device and dye composition for electrowetting display” (FUJIFILM CORPORATION, priority 2012, dated 2016)", "experiment": "Solubility of dye in normal decane", "assay_type": "physicochemical", "details": "n-decane, 25° C., after heating to 50° C. and leaving 12 hours; 40% by mass added"}
{"substance": "tetraphenylporphine [Comparative compound H-1]", "values": [{"measurement": "Solubility in Decane", "value": "less than 0.1% by mass"}]}
